Source: EP1534716B1, “HETEROBICYCLIC PYRAZOLE DERIVATIVES AS KINASE INHIBITORS” (priority 2002, dated 2004)

Biological target: T1, Aurora-2 (Homo sapiens, UniProt O14965)
T1 sequence (O14965 1-403): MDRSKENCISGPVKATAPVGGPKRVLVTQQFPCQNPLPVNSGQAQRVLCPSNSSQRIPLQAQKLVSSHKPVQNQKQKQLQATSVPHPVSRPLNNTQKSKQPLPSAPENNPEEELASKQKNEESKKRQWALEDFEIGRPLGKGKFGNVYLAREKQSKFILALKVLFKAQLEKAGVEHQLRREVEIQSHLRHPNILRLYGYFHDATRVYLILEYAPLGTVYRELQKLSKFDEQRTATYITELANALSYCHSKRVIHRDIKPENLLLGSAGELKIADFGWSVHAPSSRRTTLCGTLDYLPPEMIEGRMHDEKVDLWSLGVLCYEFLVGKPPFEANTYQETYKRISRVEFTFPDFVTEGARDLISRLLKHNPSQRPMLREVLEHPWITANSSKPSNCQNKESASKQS
Test: Inhibition assay of Aurora-2 activity (SPA)
Type: biochemical
Conditions: 10 µM ATP, 60 minutes at room temperature
Protocol: The inhibiting activity of putative cdk/cyclin inhibitors and the potency of selected compounds is determined through a method of assay based on the use of the SPA technology (Amersham Pharmacia Biotech).
The assay consists of the transfer of radioactivity labelled phosphate moiety by the kinase to a biotinylated substrate. The resulting 33P-labelled biotinylated product is allowed to bind to streptavidin-coated SPA beads (biotin capacity 130 pmol/mg), and light emitted was measured in a scintillation counter.
Experimental data were analyzed by the computer program GraphPad Prizm using the four parameter logistic equation: [formula] where x is the logarithm of the inhibitor concentration, y is the response; y starts at bottom and goes to top with a sigmoid shape.
Inhibition assay of Aurora-2 activity
After 60 minutes at room temperature incubation, reaction was stopped and biotinylated peptide captured by adding 100 µl of bead suspension.
Stratification: 100 µl of CsC12 5 M were added to each well and let stand 4 hour before radioactivity was counted in the Top-Count instrument.
IC50 determination: see above

SMILES	IC50 [nM]
C[C@@H](NC(=O)c1cc2[nH]nc(NC(=O)c3ccc(CN4CCOCC4)o3)c2s1)c1ccccc1 [Compound 82, 3-{[5-(morpholin-4-ylmethyl)-2-furoyl]amino}-N-[(1R)-1-phenylethyl]-1H-thieno[3,2-c]pyrazole-5-carboxamide]	< 100
CN1CCN(c2ccc(C(=O)Nc3n[nH]c4cc(C(=O)NCc5ccc(C(F)(F)F)cc5)sc34)cc2)CC1 [Compound 104, 3-{[4-(4-methylpiperazin-1-yl)benzoyl]amino}-N-[4-(trifluoromethyl)benzyl]-1H-thieno[3,2-c]pyrazole-5-carboxamide]	< 100
CN1CCN(c2ccc(C(=O)Nc3n[nH]c4cc(C(=O)NCc5ccccc5Cl)sc34)cc2)CC1 [Compound 106, N-(2-chlorobenzyl)-3-{[4-(4-methylpiperazin-1-yl)benzoyl]amino}-1H-thieno[3,2-c]pyrazole-5-carboxamide]	< 100
CCc1cccc(CC)c1NC(=O)c1cc2[nH]nc(NC(=O)c3ccc(N4CCN(C)CC4)cc3)c2s1 [Compound 107, N-(2,6-diethylphenyl)-3-{[4-(4-methylpiperazin-1-yl)benzoyl]amino}-1H-thieno[3,2-c]pyrazole-5-carboxamide]	< 100
CN1CCN(c2ccc(C(=O)Nc3n[nH]c4cc(C(=O)N(C)Cc5ccccc5)sc34)cc2)CC1 [Compound 113, N-benzyl-N-methyl-3-{[4-(4-methylpiperazin-1-yl)benzoyl]amino}-1H-thieno[3,2-c]pyrazole-5-carboxamide]	< 100
Cc1cccc(Cl)c1CNC(=O)c1cc2[nH]nc(NC(=O)c3ccc(N4CCN(C)CC4)cc3)c2s1 [Compound 122, N-(2-chloro-6-methylbenzyl)-3-{[4-(4-methylpiperazin-1-yl)benzoyl]amino}-1H-thieno[3,2-c]pyrazole-5-carboxamide bis(trifluoroacetate)]	< 100
O=C(Nc1n[nH]c2cc(C(=O)NC(c3ccccc3)c3ccccc3)sc12)c1ccc(N2CCOCC2)cc1 [Compound 128, N-benzhydryl-3-[(4-morpholin-4-ylbenzoyl)amino]-1H-thieno[3,2-c]pyrazole-5-carboxamide]	< 100
CC(NC(=O)c1cc2[nH]nc(NC(=O)c3ccc(N4CCOCC4)cc3)c2s1)c1ccc(Cl)cc1 (stereo not shown) [Compound 130, N-[1-(4-chlorophenyl)ethyl]-3-[(4-morpholin-4-ylbenzoyl)amino]-1H-thieno[3,2-c]pyrazole-5-carboxamide]	< 100

The remaining lines, values ahead:

IC50 [nM]	SMILES
< 100	CCNC(=O)c1cc2[nH]nc(NC(=O)c3ccc(C(C)(C)C)cc3)c2s1 [Compound 66, 3-[(4-tert-butylbenzoyl)amino]-N-ethyl-1H-thieno[3,2-c]pyrazole-5-carboxamide]
< 100	CN1CCN(c2ccc(C(=O)Nc3n[nH]c4cc(C(=O)NCc5cccc(F)c5)sc34)cc2)CC1 [Compound 94, N-(3-fluorobenzyl)-3-{[4-(4-methylpiperazin-1-yl)benzoyl]amino}-1H-thieno[3,2-c]pyrazole-5-carboxamide]
< 100	CN1CCN(c2ccc(C(=O)Nc3n[nH]c4cc(C(=O)NCc5ccc(Cl)cc5)sc34)cc2)CC1 [Compound 97, N-(4-chlorobenzyl)-3-{[4-(4-methylpiperazin-1-yl)benzoyl]amino}-1H-thieno[3,2-c]pyrazole-5-carboxamide]
< 100	Cc1cccc(C)c1NC(=O)c1cc2[nH]nc(NC(=O)c3ccc(N4CCN(C)CC4)cc3)c2s1 [Compound 108, N-(2,6-dimethylphenyl)-3-{[4-(4-methylpiperazin-1-yl)benzoyl]amino}-1H-thieno[3,2-c]pyrazole-5-carboxamide]
< 100	Cc1cccc(Cl)c1NC(=O)c1cc2[nH]nc(NC(=O)c3ccc(N4CCN(C)CC4)cc3)c2s1 [Compound 109, N-(2-chloro-6-methylphenyl)-3-{[4-(4-methylpiperazin-1-yl)benzoyl]amino}-1H-thieno[3,2-c]pyrazole-5-carboxamide]
